From patent publication US20260159512A1, “BCAT2 INHIBITORS” (AGIOS PHARMACEUTICALS, INC., priority 2021, published 2026) come the findings set out here.

Experiment [1] addresses T1, BCAT2 (Homo sapiens, UniProt O15382).
T1 sequence (O15382 28-392): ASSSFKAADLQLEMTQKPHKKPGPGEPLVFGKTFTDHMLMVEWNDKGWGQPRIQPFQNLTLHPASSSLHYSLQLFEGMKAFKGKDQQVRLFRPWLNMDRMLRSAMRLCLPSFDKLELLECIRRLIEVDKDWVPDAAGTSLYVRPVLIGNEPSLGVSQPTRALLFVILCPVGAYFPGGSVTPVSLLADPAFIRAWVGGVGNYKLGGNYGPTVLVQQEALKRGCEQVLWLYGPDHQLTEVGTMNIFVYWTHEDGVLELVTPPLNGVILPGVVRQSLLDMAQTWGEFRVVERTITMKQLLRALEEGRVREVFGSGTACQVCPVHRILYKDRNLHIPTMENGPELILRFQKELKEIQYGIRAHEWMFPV
Description: BCAT2 in vitro enzyme inhibition assay (resazurin/diaphorase-coupled fluorescence). It counts as biochemical. Set-up: key to BCAT2 Enzyme Inhibition: A: less than or equal to 0.100 μM; B: greater than 0.100 and less than or equal to 0.500 μM; C: greater than 0.500 and less than or equal to 1.000 μM; d: greater than 1.000 μM; E: no fit. The note with it: average where tested multiple times. The essentials:
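Coupled fluorescence readout: glutamate formed from L-leucine/α-ketoglutarate transamination drives GDH/NAD/diaphorase reduction of resazurin (Ex 540/Em 590). Human BCAT2 was first exposed 1 h at room temperature to compound, top final 100 μM in 3-fold, 10-point series; substrate reaction ran 1 h before SDS quench, in technical duplicate with DMSO max and enzyme-free min controls.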
A general note: The colour change of resazurin is a common sign of viable cells or microbes.

For experiment [2], the target named is T1, BCAT2. Description: BCAT2 in vitro cell inhibition using engineered A549 cells (KMV cell assay, 13C6-KMV by LC-MS/MS). The arrangement: The result was an engineered A549 cell line that expressed endogenous BCAT2; endogenous in cells; host or cells: A549 cells with MUT and BCAT1 knocked out by CRISPR/CAS9; key to BCAT2 Cell Inhibition: A: less than or equal to 0.100 μM; B: greater than 0.100 and less than or equal to 0.500 μM; C: greater than 0.500 and less than or equal to 1.000 μM; d: greater than 1.000 μM; E: no fit. The format is cell-based. Conditions: average where tested multiple times.

Compound `CO[C@@H]1C[C@@H](NC(=O)c2ncc(Cl)s2)C[C@@H](n2c(CC(C)C)nc3cnc(-c4ncc(C)o4)cc32)C1` (single isomer, unassigned) [Example 428] came in with an IC50 against BCAT2 [1] above 1000 nM. The “BCAT2 Cell Inhibition” value on BCAT2 [2] is given as “E”.

On to `COC(=O)N[C@@H](c1nc2cnc(-c3nc[nH]n3)cc2n1[C@@H]1CCC[C@H](NC(=O)c2ncc(Cl)s2)C1)C(C)C` [Example 371, methyl ((R)-1-(1-((1R,3S)-3-(5-chlorothiazole-2-carboxamido)cyclohexyl)-6-(1H-1,2,4-triazol-3-yl)-1H-imidazo[4,5-c]pyridin-2-yl)-2-methylpropyl)carbamate], for which, at BCAT2 [1], the IC50 was above 1000 nM. Also, the “BCAT2 Cell Inhibition” value on BCAT2 [2] was “E”.

Turning to `O=C(N[C@H]1CCC[C@@H](n2c(C3COCCO3)nc3cnc(-c4nc[nH]n4)cc32)C1)c1ncc(Cl)s1` (single isomer, unassigned) [Example 177], the IC50 at BCAT2 [1] was in the range of 500 to 1000 nM. Besides, at BCAT2 [2], the “BCAT2 Cell Inhibition” value is “E”.

In turn, `O=C(N[C@H]1CCC[C@@H](n2c(-c3ccccc3F)nc3cnc(C4CCCO4)cc32)C1)c1ncc(Cl)s1` (single isomer, unassigned) [Example 200] showed an IC50 against BCAT2 [1] of 500 to 1000 nM. The “BCAT2 Cell Inhibition” value at BCAT2 [2] is listed as “E”.

Consider `Cc1coc(-c2cc3c(cn2)nc(-c2ccccc2F)n3[C@H]2CCC[C@@H](NC(=O)c3ncc(Cl)s3)[C@@H]2O)n1` [Example 237, 5-chloro-N-((1R,2S,3S)-3-(2-(2-fluorophenyl)-6-(4-methyloxazol-2-yl)-1H-imidazo[4,5-c]pyridin-1-yl)-2-hydroxycyclohexyl)thiazole-2-carboxamide], for which the IC50 at BCAT2 [1] was 100 to 500 nM; against BCAT2 [2], 500 to 1000 nM.

As for `CO[C@H]1C[C@H](NC(=O)c2ncc(Cl)s2)C[C@H](n2c(CC(C)C)nc3cnc(-c4nc[nH]n4)cc32)C1` (stereo in doubt) [Example 413, 5-chloro-N-((1R,3S,5S)-3-(2-isobutyl-6-(1H-1,2,4-triazol-3-yl)-1H-imidazo[4,5-c]pyridin-1-yl)-5-methoxycyclohexyl)thiazole-2-carboxamide], the IC50 on BCAT2 [1] was above 1000 nM. The “BCAT2 Cell Inhibition” value on BCAT2 [2] is “E”.

With `CNc1cc2c(cn1)nc(-c1ccccc1F)n2[C@H]1C[C@H](O)C[C@@H](NC(=O)c2ncc(Cl)s2)C1` [Example 273, 5-chloro-N-((1S,3R,5R)-3-(2-(2-fluorophenyl)-6-(methylamino)-1H-imidazo[4,5-c]pyridin-1-yl)-5-hydroxycyclohexyl)thiazole-2-carboxamide], the IC50 at BCAT2 [1] fell in the range of 500 to 1000 nM. Also, the “BCAT2 Cell Inhibition” value on BCAT2 [2] is given as “E”.

In the case of `CO[C@H]1[C@@H](NC(=O)c2ncc(Cl)s2)CCC[C@H]1n1c(-c2ccccc2F)nc2cnc(-c3nc[nH]n3)cc21` [Example 433, 5-chloro-N-((1S,2S,3R)-3-(2-(2-fluorophenyl)-6-(1H-1,2,4-triazol-3-yl)-1H-imidazo[4,5-c]pyridin-1-yl)-2-methoxycyclohexyl)thiazole-2-carboxamide], the “BCAT2 Enzyme Inhibition” value on BCAT2 [1] is “E”. Also, at BCAT2 [2], the “BCAT2 Cell Inhibition” value was “E”.

In turn, `CO[C@H]1C[C@@H](NC(=O)c2ncc(Cl)s2)C[C@@H](n2c(CC(C)C)nc3cnc(-n4nccn4)cc32)C1` (single isomer, unassigned) [Example 440] displayed an IC50 at BCAT2 [1] of 500 to 1000 nM. For the same compound, the “BCAT2 Cell Inhibition” value at BCAT2 [2] is “E”.

`CO[C@@H]1C[C@@H](NC(=O)c2ncc(Cl)s2)C[C@@H](n2c(CC(C)C)nc3cnc(-c4ncccn4)cc32)C1` [Example 436, 5-chloro-N-((1S,3R,5R)-3-(2-isobutyl-6-(pyrimidin-2-yl)-1H-imidazo[4,5-c]pyridin-1-yl)-5-methoxycyclohexyl)thiazole-2-carboxamide]: on BCAT2 [1], the IC50 fell in the range of 500 to 1000 nM. Also, at BCAT2 [2], the “BCAT2 Cell Inhibition” value is given as “E”.

Take `CC(C)(C)Cc1nc2cnc(-n3nccn3)cc2n1[C@H]1CCC[C@@H](NC(=O)c2ccc(Cl)s2)[C@@H]1O` [Example 388, 5-chloro-N-((1R,2S,3S)-2-hydroxy-3-(2-neopentyl-6-(2H-1,2,3-triazol-2-yl)-1H-imidazo[4,5-c]pyridin-1-yl)cyclohexyl)thiophene-2-carboxamide]: the concentration for half-maximal inhibition (IC50) against BCAT2 [1] is above 1000 nM. Besides, the “BCAT2 Cell Inhibition” value at BCAT2 [2] is on record as “E”.

Turning to `O=C(N[C@H]1CCC[C@@H](n2c(-c3ccccc3F)nc3cnc(-c4nncn4C(F)F)cc32)C1)c1ncc(Cl)s1` [Example 377, 5-chloro-N-((1S,3R)-3-(6-(4-(difluoromethyl)-4H-1,2,4-triazol-3-yl)-2-(2-fluorophenyl)-1H-imidazo[4,5-c]pyridin-1-yl)cyclohexyl)thiazole-2-carboxamide], the IC50 is 500 to 1000 nM on BCAT2 [1] and above 1000 nM on BCAT2 [2].

At BCAT2 [1], `COc1cc2c(cn1)nc(-c1ccccc1F)n2[C@H]1C[C@H](O)C[C@@H](NC(=O)c2ncc(Cl)s2)C1` [Example 277, 5-chloro-N-((1S,3R,5R)-3-(2-(2-fluorophenyl)-6-methoxy-1H-imidazo[4,5-c]pyridin-1-yl)-5-hydroxycyclohexyl)thiazole-2-carboxamide] showed an IC50 above 1000 nM. Also, the “BCAT2 Cell Inhibition” value at BCAT2 [2] is “E”.

On BCAT2 [1], `CC(C)Cc1nc2cnc(N3CCC[C@H]3C#N)cc2n1[C@@H]1CCC[C@H](NC(=O)c2ncc(Cl)s2)C1` [Example 309, 5-chloro-N-((1S,3R)-3-(6-((S)-2-cyanopyrrolidin-1-yl)-2-isobutyl-1H-imidazo[4,5-c]pyridin-1-yl)cyclohexyl)thiazole-2-carboxamide] had an IC50 above 1000 nM. Also, the “BCAT2 Cell Inhibition” value at BCAT2 [2] is “E”.

On BCAT2 [1], `O=C(N[C@@H]1C[C@@H](O)C[C@H](n2c(-c3ccccc3F)nc3cnc(F)cc32)C1)c1ncc(Cl)s1` [Example 275, 5-chloro-N-((1S,3R,5R)-3-(6-fluoro-2-(2-fluorophenyl)-1H-imidazo[4,5-c]pyridin-1-yl)-5-hydroxycyclohexyl)thiazole-2-carboxamide] yielded an IC50 above 1000 nM. At BCAT2 [2], the “BCAT2 Cell Inhibition” value is recorded as “E”.

Compound `O=C(NN1CCCC(n2c(-c3ccccn3)nc3cnc(-n4nccn4)cc32)C1)c1ncc(C(F)F)s1` (stereo not shown) [Example 137, 5-(difluoromethyl)-N-(3-(2-(pyridin-2-yl)-6-(2H-1,2,3-triazol-2-yl)-1H-imidazo[4,5-c]pyridin-1-yl)piperidin-1-yl)thiazole-2-carboxamide] registered an IC50 at BCAT2 [1] above 1000 nM. In addition, the “BCAT2 Cell Inhibition” value on BCAT2 [2] is listed as “E”.

`CO[C@@H]1C[C@@H](NC(=O)c2ncc(Cl)s2)C[C@@H](n2c(-c3ccccc3F)nc3cnc(-c4nc[nH]n4)cc32)C1` (single isomer, unassigned) [Example 219]: the IC50 against BCAT2 [1] is 100 to 500 nM; at BCAT2 [2], above 1000 nM.

The compound `O=C(N[C@H]1CCC[C@@H](n2c(-c3ccccc3F)nc3cnc(C4CCCO4)cc32)C1)c1ncc(Cl)s1` (single isomer, unassigned) [Example 201] gave an IC50 against BCAT2 [1] of 500 to 1000 nM. The “BCAT2 Cell Inhibition” value on BCAT2 [2] is “E”.

As for `O=C(N[C@@H]1CCC[C@H](n2c(-c3ccccc3F)nc3cnc(-c4ccccn4)cc32)[C@H]1O)c1ncc(Cl)s1` [Example 241, 5-chloro-N-((1R,2S,3S)-3-(2-(2-fluorophenyl)-6-(pyridin-2-yl)-1H-imidazo[4,5-c]pyridin-1-yl)-2-hydroxycyclohexyl)thiazole-2-carboxamide], the IC50 against BCAT2 [1] and against BCAT2 [2] was 100 to 500 nM throughout.

On to `O=C(N[C@@H]1CCC[C@H](n2c(-c3ccccc3F)nc3cnc(-c4ccn[nH]4)cc32)[C@H]1O)c1ncc(Cl)s1` [Example 239, 5-chloro-N-((1R,2S,3S)-3-(2-(2-fluorophenyl)-6-(1H-pyrazol-5-yl)-1H-imidazo[4,5-c]pyridin-1-yl)-2-hydroxycyclohexyl)thiazole-2-carboxamide], for which the IC50 fell in the range of 100 to 500 nM against BCAT2 [1] and 500 to 1000 nM against BCAT2 [2].

In the case of `CN1C[C@@H](NC(=O)c2ccc(Cl)s2)C[C@@H](n2c(-c3ccccc3F)nc3cnc(-c4nc[nH]n4)cc32)C1` [Example 265, 5-chloro-N-((3S,5R)-5-(2-(2-fluorophenyl)-6-(1H-1,2,4-triazol-3-yl)-1H-imidazo[4,5-c]pyridin-1-yl)-1-methylpiperidin-3-yl)thiophene-2-carboxamide], the IC50 against BCAT2 [1] is 100 to 500 nM; at BCAT2 [2] it was above 1000 nM.

For `CC(C)C(O)c1nc2cnc(-c3nc[nH]n3)cc2n1[C@@H]1CCC[C@H](NC(=O)c2ncc(Cl)s2)C1` (single isomer, unassigned) [Example 182], the IC50 is at most 100 nM at BCAT2 [1] and 500 to 1000 nM against BCAT2 [2].

At BCAT2 [1], `CC(C)Cc1nc2cnc(N3CCC[C@@H]3C(N)=O)cc2n1[C@@H]1CCC[C@H](NC(=O)c2ncc(Cl)s2)C1` [Example 308, N-((1S,3R)-3-(6-((R)-2-carbamoylpyrrolidin-1-yl)-2-isobutyl-1H-imidazo[4,5-c]pyridin-1-yl)cyclohexyl)-5-chlorothiazole-2-carboxamide] yielded an IC50 above 1000 nM. Moreover, the “BCAT2 Cell Inhibition” value at BCAT2 [2] was “E”.

In general, IC50 refers to the concentration that gives 50% inhibition.
